Measurements from the supplement of paper PMC10307832.

Tests used:
Experiment in all cases: relative viability (nuclei count vs DMSO), 5 days (fraction); higher = more cells survive
[1] = compound: C1=CC=C(C(=C1)C2=CC=C(C=C2)C3=CSC4=C3C(=C(C(=O)N4)C#N)O)O
How it was run: (§1)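 Viability was read as treated-well nuclei divided by vehicle-well nuclei, using the median across plates. Lung cancer cell lines in 1536-well plates were kept overnight at 37 °C, pinned with five √10-spaced library-drug doses, and after 5 days were Hoechst-stained, imaged at 4× and counted in MetaXpress. Plates passed only with control CV below 25% and at least one doubling.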

Ricolinostat = compound: O=C(CCCCCCNC(=O)c1cnc(N(c2ccccc2)c2ccccc2)nc1)NO [Ricolinostat]
How it was run: as §1

TGX 221 = compound: CC1=CN2C(=O)C=C(N=C2C(=C1)C(C)NC3=CC=CC=C3)N4CCOCC4 [TGX 221]
How it was run: as §1

[2] = compound: C1=CC=C(C(=C1)C2=CC=C(C=C2)C3=CSC4=C3C(=C(C(=O)N4)C#N)O)O + CC(=O)Nc1cccc(-n2c(=O)n(C3CC3)c(=O)c3c(Nc4ccc(I)cc4F)n(C)c(=O)c(C)c32)c1 [Trametinib] (partner 0.02 µM)
How it was run: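 Each reported value is a median over duplicate plates. It expresses relative viability: treated-well nuclei count divided by vehicle-well nuclei count. Lung cancer cell lines in 1536-well plates were dosed by pin tool a day after seeding, alone with one drug or with a fixed anchor-drug dose plus five library-drug doses (not always all listed) in √10 steps, and nuclei were counted after 5 days.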

Cell Line	relative viability ([1]; 0.08 µM)	relative viability ([1]; 0.253 µM)	relative viability ([1]; 0.8 µM)	relative viability ([1]; 2.53 µM)	relative viability ([1]; 8 µM)	relative viability (Ricolinostat; 0.253 µM)	relative viability (Ricolinostat; 0.8 µM)	relative viability (Ricolinostat; 2.53 µM)	relative viability (TGX 221; 0.08 µM)	relative viability (TGX 221; 0.253 µM)	relative viability (TGX 221; 0.8 µM)	relative viability (TGX 221; 2.53 µM)	relative viability (TGX 221; 8 µM)	relative viability ([2]; first compound 0.08 µM)	relative viability ([2]; first compound 0.253 µM)	relative viability ([2]; first compound 0.8 µM)	relative viability ([2]; first compound 2.53 µM)	relative viability ([2]; first compound 8 µM)	relative viability (Ricolinostat; 0.08 µM)
HCC-78	0.85	1.23	1.15	0.966	0.832	1.03	0.8	0.637	0.769	0.856	0.785	0.722	0.76	0.916	1.27	0.972	0.728	0.628	–
HCC-366	0.829	1.08	1.07	1.01	0.638	1.03	1.03	0.769	0.942	0.999	1.03	0.957	1.01	–	0.385	0.363	0.439	0.314	0.984
HCC-827	1.03	1.05	1.08	1.07	1.11	1.02	1.01	0.991	0.982	1.03	1.07	1.04	0.983	0.538	0.368	0.538	0.535	0.536	0.946
HOP-62	1.08	1.12	1	1.08	0.82	0.987	1.03	0.913	0.965	1.06	1.04	1.09	1.09	0.38	0.431	0.41	0.378	0.337	0.932
IA-LM	0.725	1.45	1.04	1.15	0.655	0.924	0.797	0.777	0.883	0.96	1.07	0.981	0.966	–	–	–	–	–	0.657
LC-2-ad	0.824	1.05	0.898	1.04	0.906	0.964	0.946	0.683	0.962	1.01	1.01	1.02	0.92	0.899	0.942	0.909	0.98	0.807	0.866
LCLC-97TM1	0.895	1.34	1.02	1.08	1.03	1.06	0.997	0.855	0.97	0.76	1.02	0.863	0.924	0.23	0.239	0.247	0.168	0.232	0.809
LCLC-103H	1.02	0.984	1.05	0.984	1	0.957	1.04	1.08	0.903	0.983	0.878	0.928	0.959	0.729	0.618	0.682	0.632	0.62	0.778
LK-2	0.724	0.922	1.11	0.918	0.71	0.999	1	0.899	0.986	0.878	0.914	0.996	1.1	0.594	0.609	0.95	0.745	0.598	0.967
LOU-NH91	0.941	1.06	0.962	0.896	0.894	1.03	0.94	0.98	0.914	1	0.948	0.948	0.901	0.778	0.865	0.794	0.753	0.705	–
LU99A	0.984	0.905	0.95	0.89	0.911	0.926	0.865	0.641	0.859	0.857	0.896	0.89	0.981	0.566	0.589	0.596	0.585	0.605	0.877
LXF-289	0.936	1.02	1	1.06	0.969	0.972	1	0.968	1.03	0.98	1.03	0.984	1.04	0.682	0.695	0.656	0.722	0.755	0.994
NCI-H23	0.948	1.03	1.07	0.978	0.805	1.03	0.851	0.895	0.993	0.861	0.909	0.825	0.932	0.333	0.321	0.383	0.379	0.261	0.779
NCI-H322M	0.866	0.918	0.95	0.949	0.96	0.964	0.958	0.923	0.876	0.875	0.904	0.801	0.841	0.501	0.464	0.548	0.539	0.503	–
NCI-H358	0.905	0.937	1.04	0.907	0.716	0.914	1.05	1.04	0.914	0.88	0.914	1.02	0.756	0.13	0.149	0.131	0.135	0.14	0.726
NCI-H1299	1.09	1.07	1.01	1.06	0.897	0.983	0.982	0.954	0.98	1.01	1.01	1.06	0.993	–	–	–	–	–	0.997
NCI-H1563	0.959	0.971	0.976	0.955	0.989	1.02	0.837	0.864	0.947	0.915	0.831	0.866	0.748	–	–	–	–	–	0.894
NCI-H1623	1.04	1.1	0.927	1.04	0.774	0.972	1.12	0.889	1.04	0.863	0.949	0.82	0.991	–	–	–	–	–	0.933
NCI-H1703	0.929	0.965	0.902	0.892	0.789	1.01	0.928	1	0.892	0.785	0.776	0.672	0.634	–	–	–	–	–	–
